# Assay results taken from patent US11761023B2, “Analyzing and using motility kinematics of microorganisms” (PhAST Corp., priority 2017, dated 2023).
# Where two headings read alike, the source gives them in different places.
# Columns and labels:
# Assay type in all cases: cell-based, Pseudomonas aeruginosa
# [1] = test system: susceptible clinical isolate of P. aeruginosa (PSA 9/53); experiment: Single-cell swimming speed (ASK software) relative to antibiotic-free control; conditions: ciprofloxacin 4 μg/ml, meropenem 0.5 μg/ml, gentamicin 8 μg/ml; FIG. 17
# Source text: The swimming speed (y axis) was normalized by the speed in the control (which thus becomes the dashed line at 1).
# [2] = test system: clinical isolate P. aeruginosa 9/53; experiment: MIC by broth microdilution assay
# P. aeruginosa ATCC 27853 = experiment: MIC by broth microdilution assay
# P. aeruginosa PA14 = experiment: Single-cell swimming kinematics (ASK software, phase contrast video microscopy) upon antibiotic exposure; conditions: for change in swimming speed compared to antibiotic-free control: FIG. 12
Compound,sensitivity of motility (swimming speed) to the antibiotic [1],"MIC ([2]; Pseudomonas aeruginosa, read-out: MIC)",MIC [2],MIC (P. aeruginosa ATCC 27853),change in swimming speed compared to antibiotic-free control (P. aeruginosa PA14; 0.1 μg/ml),change in swimming speed compared to antibiotic-free control (P. aeruginosa PA14; 1 μg/ml),change in swimming speed compared to antibiotic-free control (P. aeruginosa PA14; 10 μg/ml),"decrease of mean swimming speed compared to the antibiotic-free control (P. aeruginosa PA14; 1 μg/ml, after 30 min)","mean swimming speed of exposed cells (P. aeruginosa PA14; 1 μg/ml, after 30 min)","decrease of mean swimming speed compared to the antibiotic-free control (P. aeruginosa PA14; 1 μg/ml, after 50 min)","mean swimming speed of exposed cells (P. aeruginosa PA14; 1 μg/ml, after 50 min)","decrease of mean swimming speed compared to the antibiotic-free control (P. aeruginosa PA14; 1 μg/ml, after 70 min)","mean swimming speed of exposed cells (P. aeruginosa PA14; 1 μg/ml, after 70 min)"
C[C@@H](O)[C@H]1C(=O)N2C(C(=O)O)=C(S[C@@H]3CN[C@H](C(=O)N(C)C)C3)[C@H](C)[C@H]12 [meropenem],less so,0.5 µg/mL,,,,,,,,,,,
gentamicin,very sensitive,,1 µg/mL,1 µg/mL,not,not,significantly reduced,,,,,,
CC(C)(O/N=C(\C(=O)N[C@@H]1C(=O)N2C(C(=O)[O-])=C(C[n+]3ccccc3)CS[C@H]12)c1csc(N)n1)C(=O)O [ceftazidime],,,,,no significant changes,,,14%,42.6 μm/s,23%,35.4 μm/s,33%,31.2 μm/s
